Measured values as given in article PMC5520944 (Cell Death & Disease, 2017).
Read-outs that look alike come from different tables or passages of the source.

Tests used:
Test in all cases: cells
L929sAhFas [1] = system: L929sAhFas; design: high-content necroptosis screen, percentage PI-positive nuclei as percent of DMSO plus stimulus control; details: mTNF-induced cell death, validation screen; read-out: Validation screen IC50 (µM) (TNF)
Source text: To identify novel inhibitors or regulators of necroptosis, 500 small compounds from libraries targeting autophagy, kinases, phosphatases, proteases and redox balance were screened for their ability to block TNF-induced necroptosis in murine L929sAhFas cells. Three conditions were used to induce necroptosis in L929 cells: TNF alone, TNF+TAK1 inhibitor (TAK1i) and TNF+zVAD-fmk, a pan-caspase inhibitor. Inhibition of TAK1 or caspases sensitizes to necroptosis.[13], [32] Necroptosis, measured as the percentage of PI-positive nuclei normalized to the plate-specific DMSO control, was determined for each compound (Supplementary Figure 1A). Z’ values for the TNF- and TNF+TAK1i-induced cell death assay were 0.498 and 0.919, respectively (Supplementary Figures 2A and B), indicating good assay performance. Sorafenib was identified as an effective inhibitor of both TNF- and TNF+TAK1i-induced necroptosis (Figure 1a). […] In an independent screening with 437 FDA-approved drugs and TNF+zVAD-fmk as necroptosis trigger in L929 cells (Supplementary Figure 1B), Sorafenib was also shown to be a potent inhibitor (Figure 1b). […] After compound treatment, L929sAhFas (a) or L929 (b) cells were stimulated with mTNF (T), mTNF+Tak1i (TiT) or mTNF+zVAD (zVT) (Supplementary Figure 1A and B). (a) Cell death percentage (% PI-positive nuclei) or cell loss was calculated as percent of control (DMSO+stimulus). Green points marked by the green dotted line represent a selection of kinase inhibitors from the screening on L929sAhFas cells (Supplementary Table 1), that are only slightly protective in the TNF-stimulated condition. (b) Cell loss (luminescence-based readout for ATP) was calculated as percent of control (DMSO+stimulus). […] In stimulated conditions, % PI-positive nuclei was determined as % of DMSO control. Data represent mean values±S.E.M. of two independent experiments. Cells were stained with Hoechst and PI and percentage PI-positive nuclei was determined using high-content image analysis (BD pathway Bioimager). (d) L929sAhFas cells were treated with Sorafenib (concentration as indicated) for 24 h. Then, stimulus was removed, 50 cells/condition seeded and colonies counted with crystal violet staining after 10 days incubation. Quantification was performed using ImageJ. n=2, a representative experiment is shown Legends supplementary figures Supplementary Figure S1. Schemes of workflow screening assays in L929 cell lines. (A) Scheme of the workflow of a high-content screening assay on L929sAhFas cells using mTNF (T) and mTNF+Tak1i ((5Z)-7-Oxozeaenol) (TiT) to induce necroptotic cell death. Nec-1 and zVAD-fmk were used as protective and sensitizing benchmarks, respectively, on all plates. (B) Scheme of the workflow of a CellTiter-Glo luminescent cell viability screening assay on L929 cells using mTNF+zVAD (zVT) to induce necroptotic cell death. Supplementary Figure S2. Z’ calculation for cell death screening assays in L929 cells. (A) Z’ calculation for cell death screening assay (Fig. 1A) in mTNF-stimulated L929sAhFas cells. (B) Z’ calculation for cell death screening assay (Fig. 1A) in L929sAhFas cells stimulated with mTNF + Taki.

L929sAhFas [2] = system: L929sAhFas; design: high-content necroptosis screen, percentage PI-positive nuclei as percent of DMSO plus stimulus control
Source text: To identify novel inhibitors or regulators of necroptosis, 500 small compounds from libraries targeting autophagy, kinases, phosphatases, proteases and redox balance were screened for their ability to block TNF-induced necroptosis in murine L929sAhFas cells. Three conditions were used to induce necroptosis in L929 cells: TNF alone, TNF+TAK1 inhibitor (TAK1i) and TNF+zVAD-fmk, a pan-caspase inhibitor. Inhibition of TAK1 or caspases sensitizes to necroptosis.[13], [32] Necroptosis, measured as the percentage of PI-positive nuclei normalized to the plate-specific DMSO control, was determined for each compound (Supplementary Figure 1A). […] After compound treatment, L929sAhFas (a) or L929 (b) cells were stimulated with mTNF (T), mTNF+Tak1i (TiT) or mTNF+zVAD (zVT) (Supplementary Figure 1A and B). (a) Cell death percentage (% PI-positive nuclei) or cell loss was calculated as percent of control (DMSO+stimulus). […] (b) Cell loss (luminescence-based readout for ATP) was calculated as percent of control (DMSO+stimulus). […] In stimulated conditions, % PI-positive nuclei was determined as % of DMSO control. Data represent mean values±S.E.M. of two independent experiments. Cells were stained with Hoechst and PI and percentage PI-positive nuclei was determined using high-content image analysis (BD pathway Bioimager). (d) L929sAhFas cells were treated with Sorafenib (concentration as indicated) for 24 h. Then, stimulus was removed, 50 cells/condition seeded and colonies counted with crystal violet staining after 10 days incubation. […] Schemes of workflow screening assays in L929 cell lines. (A) Scheme of the workflow of a high-content screening assay on L929sAhFas cells using mTNF (T) and mTNF+Tak1i ((5Z)-7-Oxozeaenol) (TiT) to induce necroptotic cell death. Nec-1 and zVAD-fmk were used as protective and sensitizing benchmarks, respectively, on all plates. (B) Scheme of the workflow of a CellTiter-Glo luminescent cell viability screening assay on L929 cells using mTNF+zVAD (zVT) to induce necroptotic cell death. Supplementary Figure S2. Z’ calculation for cell death screening assays in L929 cells. (A) Z’ calculation for cell death screening assay (Fig. 1A) in mTNF-stimulated L929sAhFas cells. (B) Z’ calculation for cell death screening assay (Fig. 1A) in L929sAhFas cells stimulated with mTNF + Taki.

Molm13 = system: Molm13; design: species or system Jurkat FADD-/-, HT-29, MV4-11 or Molm13; protection from induced necroptosis, cell death by PI staining and flow cytometry; details: Homo sapiens, MOLM-13; BV6 + zVAD; inhibition of induced cell death
Method: (§1) Figure 2 Sorafenib inhibits TNF-induced RIPK1-dependent cell death in both murine and human cell lines and rescues AML cells from Smac mimetic-induced necroptosis. […] (c,d) HT-29 and Jurkat FADD−/− cells were pretreated for 1 h with DMSO, Nec-1 or Sorafenib (concentrations as indicated) and stimulated for 6 h with 30 ng/ml hTNF, 1 μM BV6 and 30 μM zVAD (HT-29) or stimulated for 10 h with 100 ng/ml hTNF (Jurkat FADD−/−). (a-d) Data were normalized to DMSO-treated control cells and represent the mean value±S.E.M. of three independent experiments. Toxic concentrations were removed from the analysis. L929sAhFas and MEF cells were stained with Hoechst and PI and percentage PI-positive nuclei was determined using high-content image analysis (BD pathway Bioimager). For HT-29 and Jurkat FADD−/− cells, cell death was determined by PI staining and flow cytometry. […] Cell death in AML cells was determined by PI staining and flow cytometry. Mean and S.D. of three independent experiments performed in triplicate are shown Supplementary materials and methods Immunoblotting. After treatments, cells were washed twice with PBS and lysed with Laemmli buffer (2x) directly or with NP-40 lysis buffer (150 mM NaCl, 1% NP-40, 10% glycerol, 10 mM Tris-HCl pH 8) supplemented with EDTA-free protease inhibitor cocktail tablets (Roche Diagnostics, Basel, Switzerland, #11873580001) and phosphatase inhibitor cocktail tablets (Roche Diagnostics, #04906837001). After lysis with NP-40 lysis buffer, lysates were kept 10 minutes on ice and centrifugated in a microcentrifuge (10 min, 13.000 rpm, 4°C). Supernatant was used for SDS-PAGE and immunoblotting. FACS analysis. FACS analysis was used to measure dying HT-29, Jurkat FADD-/- and AML cells. Treated HT-29 cells were harvested, washed with PBS and incubated with Annexin V binding buffer (BD Biosciences, 556454) containing 7-AAD and Annexin V-FITC for 15 min according to the manufacturer’s protocol. FACSCalibur^TM Flow Cytometer (BD Biosciences) and CellQuest Pro software were used to perform experiments and analyze data respectively.

MV4-11 = system: MV4-11; design: species or system Jurkat FADD-/-, HT-29, MV4-11 or Molm13; protection from induced necroptosis, cell death by PI staining and flow cytometry; details: Homo sapiens, BV6 + zVAD, inhibition of induced cell death
Method: as §1

MEF = system: MEF; design: species or system L929sAhFas or MEF; protection from TNF-induced cell death, percentage PI-positive nuclei by high-content imaging; details: Mus musculus
Method: (c,d) HT-29 and Jurkat FADD−/− cells were pretreated for 1 h with DMSO, Nec-1 or Sorafenib (concentrations as indicated) and stimulated for 6 h with 30 ng/ml hTNF, 1 μM BV6 and 30 μM zVAD (HT-29) or stimulated for 10 h with 100 ng/ml hTNF (Jurkat FADD−/−). (a-d) Data were normalized to DMSO-treated control cells and represent the mean value±S.E.M. of three independent experiments. Toxic concentrations were removed from the analysis. L929sAhFas and MEF cells were stained with Hoechst and PI and percentage PI-positive nuclei was determined using high-content image analysis (BD pathway Bioimager). For HT-29 and Jurkat FADD−/− cells, cell death was determined by PI staining and flow cytometry. […] Cell death in AML cells was determined by PI staining and flow cytometry. […] Smac mimetic BV6[34] instead of TAK1i was used as a sensitizer for testing of mouse embryonic fibroblasts (MEF) and human cell lines. […] Since Sorafenib is used to treat AML,[27] we also included two AML cell lines to investigate whether it alters the sensitivity of these cells to necroptotic stimuli (BV6 in the presence of zVAD-fmk).[34]

L929sAhFas [3] = system: L929sAhFas; design: species or system L929sAhFas or MEF; protection from TNF-induced cell death, percentage PI-positive nuclei by high-content imaging; details: mTNF; inhibition of induced cell death
Method: Figure 2 Sorafenib inhibits TNF-induced RIPK1-dependent cell death in both murine and human cell lines and rescues AML cells from Smac mimetic-induced necroptosis. […] (c,d) HT-29 and Jurkat FADD−/− cells were pretreated for 1 h with DMSO, Nec-1 or Sorafenib (concentrations as indicated) and stimulated for 6 h with 30 ng/ml hTNF, 1 μM BV6 and 30 μM zVAD (HT-29) or stimulated for 10 h with 100 ng/ml hTNF (Jurkat FADD−/−). (a-d) Data were normalized to DMSO-treated control cells and represent the mean value±S.E.M. of three independent experiments. Toxic concentrations were removed from the analysis. L929sAhFas and MEF cells were stained with Hoechst and PI and percentage PI-positive nuclei was determined using high-content image analysis (BD pathway Bioimager). For HT-29 and Jurkat FADD−/− cells, cell death was determined by PI staining and flow cytometry. […] Cell death in AML cells was determined by PI staining and flow cytometry. Mean and S.D. of three independent experiments performed in triplicate are shown To confirm the inhibition of TNF-induced necroptosis by Sorafenib, we tested a panel of murine (L929sAhFas and MEF) and human cell lines (HT-29, Jurkat FADD^-/-, and two AML cell lines MV4-11 and Molm13). Smac mimetic BV6[34] instead of TAK1i was used as a sensitizer for testing of mouse embryonic fibroblasts (MEF) and human cell lines. […]

[4] = read-out: cell death TNF/Taki (POC)

SMILES | IC50 (L929sAhFas [1]) [µM] | activity at 10 µM (L929sAhFas [2]; read-out: cell death TNF (POC)) [%] | activity at 10 µM (L929sAhFas [2]; [4]) [%] | IC50 (Molm13) [nM] | IC50 (MV4-11) [nM] | IC50 (MEF; mTNF + BV6 + zVAD, inhibition of induced cell death) [nM] | IC50 (MEF; mTNF + BV6, inhibition of induced cell death) [nM] | IC50 (L929sAhFas [3]) [nM]
COc1cc2ncc(-c3ccccc3)nc2cc1OC [AG-1296] | 33.2 | 77.6 | 93.6 | – | – | – | – | –
CN1C(=O)NC(Cc2c[nH]c3c(Cl)cccc23)C1=O (centres unmarked) [Nec-1s] | – | – | – | 280 ± 170 | 150 ± 10 | 630 ± 250 | 380 ± 50 | 240 ± 120
CN(C)c1ccc(/C=C2\C(=O)Nc3ccccc32)cc1 [SU 4312] | 26.4 | 69.6 | 96.8 | – | – | – | – | –
CC(C)(C)c1cc(C=C(C#N)C#N)cc(C(C)(C)C)c1O [TYRPHOSTIN 9] | 4.45 | 41.8 | 95.8 | – | – | – | – | –
